Consider 26 molecules from PubChem BioAssay AID330 (DTP/NCI, 2004).

“And” between values parts separate entries of the source, which are not always exact repeats. Identical values can stand only once. Toxic doses and inconclusive results are not listed.

This assay concerns P388 leukemia ip, CD2F1 mice, survival T/C. Description: NCI In Vivo Anticancer Drug Screen. Data for tumor model P388 Leukemia (intraperitoneal) in CD2F1 (CDF1) mice. Particulars: endpoint: median survival time, higher = longer survival. The method in brief:
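Mice carrying the transplanted tumor received test compound or vehicle. Survival was recorded in each group, and the value is the treated-group measurement divided by that of the vehicle-treated control group.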

Setting [1] is: dose: 50.0 mg/kg/injection, schedule: Q01DX009 (ip), vehicle: saline.
Setting [2] is: dose: 100.0 mg/kg/injection, schedule: Q01DX009 (ip), vehicle: saline.
The mark [3] stands for this setting: dose: 200.0 mg/kg/injection, schedule: Q01DX009 (ip), vehicle: saline.
Where [4] appears, read: dose: 50.0 mg/kg/injection, schedule: Q01DX005 (ip), vehicle: Klucel (hydroxypropylcellulose) (HPC).
Where [5] appears, read: dose: 100.0 mg/kg/injection, schedule: Q01DX005 (ip), vehicle: Klucel (hydroxypropylcellulose) (HPC).
The mark [6] stands for this setting: dose: 200.0 mg/kg/injection, schedule: Q01DX005 (ip), vehicle: Klucel (hydroxypropylcellulose) (HPC).
Setting [7] is: dose: 25.0 mg/kg/injection, schedule: Q01DX009 (ip), vehicle: Klucel (hydroxypropylcellulose) (HPC).
The mark [8] stands for this setting: dose: 50.0 mg/kg/injection, schedule: Q01DX009 (ip), vehicle: Klucel (hydroxypropylcellulose) (HPC).
Setting [9] is: dose: 100.0 mg/kg/injection, schedule: Q01DX009 (ip), vehicle: Klucel (hydroxypropylcellulose) (HPC).

Take `CN(C)CCOc1ccc2c(c1)CCC2=O`: the T/C is 108 % of control under setting [1], 118 % of control under setting [2] and 108 % of control under setting [3].
With `CC1S(=O)(=O)O[Si](C)(C)CC[Si](C)(C)OS1(=O)=O`, the T/C runs as follows: under setting [4], 105 % of control; under setting [5], 100 % of control; under setting [6], 102 % of control.
`NC(=O)c1nsc(-c2ccc([N+](=O)[O-])cc2)c1N`: the T/C runs as follows: under setting [4], 101 % of control; under setting [5], 96 % of control; under setting [6], 92 % of control.
Turning to `N#CC(NCc1ccccc1)c1ccc2c(c1)OCO2` (stereo not given), the T/C (dose: 25.0 mg/kg/injection, schedule: Q01DX009 (ip), vehicle: saline with Tween-80) was 90 % of control.
Regarding `CCC/C=C\C=C\C(=O)OC1C2C=C3CC(C(C)O)OC(=O)CC(O)CC4CC(OC(C)=O)C(C)(C)C(O)(CC5C/C(=C\C(=O)OC)CC(/C=C/C(C)(C)C16OC(=O)C(O)C32O6)O5)O4` (stereo not given), the T/C reads like this: (dose: 0.03 mg/kg/injection, schedule: Q01DX009 (ip), vehicle: saline + alcohol) 163 % of control; (dose: 30.0 micrograms/kg/injection, schedule: Q01DX009 (ip), vehicle: saline + alcohol) 153 % of control.
For `CCC[CH2][Sn]([CH2]CCC)[S]CC(N)C(=O)O` (stereo not given), the T/C (dose: 0.16 mg/kg/injection, schedule: Q01DX005 (ip), vehicle: Klucel (hydroxypropylcellulose) (HPC)) was 107 % of control; the T/C (dose: 0.23 mg/kg/injection, schedule: Q01DX005 (ip), vehicle: Klucel (hydroxypropylcellulose) (HPC)) is 108 % of control; the T/C (dose: 0.46 mg/kg/injection, schedule: Q01DX005 (ip), vehicle: Klucel (hydroxypropylcellulose) (HPC)) is 103 % of control and 104 % of control; the T/C (dose: 0.93 mg/kg/injection, schedule: Q01DX005 (ip), vehicle: Klucel (hydroxypropylcellulose) (HPC)) is 117 % of control; the T/C (dose: 3.75 mg/kg/injection, schedule: Q01DX005 (ip), vehicle: Klucel (hydroxypropylcellulose) (HPC)) is 108 % of control.
As for `O=C1C(Br)=C(c2ccccc2)S(=O)(=O)c2ccccc21`, the T/C is 109 % of control (dose: 60.0 mg/kg/injection, schedule: Q01DX005 (ip), vehicle: Klucel (hydroxypropylcellulose) (HPC)); 114 % of control (dose: 120.0 mg/kg/injection, schedule: Q01DX005 (ip), vehicle: Klucel (hydroxypropylcellulose) (HPC)); 114 % of control (dose: 240.0 mg/kg/injection, schedule: Q01DX005 (ip), vehicle: Klucel (hydroxypropylcellulose) (HPC)).
As for `Cc1cnc(Sc2ncccc2[N+](=O)[O-])nc1`, the T/C by setting is: under setting [1], 109 % of control; under setting [2], 109 % of control; under setting [3], 116 % of control.
In the case of `Cc1nccc2c1[nH]c1cc(N)ccc12.[Cl][Sn][Cl]`, the T/C by setting is: (dose: 5.0 mg/kg/injection, schedule: Q01DX009 (ip), vehicle: saline sonified) 100 % of control; (dose: 10.0 mg/kg/injection, schedule: Q01DX009 (ip), vehicle: saline sonified) 95 % of control; (dose: 20.0 mg/kg/injection, schedule: Q01DX009 (ip), vehicle: saline sonified) 100 % of control.
In the case of `Cc1cnc2c(c1)CCCC2C(N)=S` (stereo not given), the T/C was 99 % of control under setting [1], 95 % of control under setting [2] and 107 % of control under setting [3].
Consider `COc1cccc2c1C(=O)c1c(O)c3c(c(O)c1C2=O)C(OC)C(O)(C(C)=O)CC3OC1CC(N)C(O)C(C)O1` (stereo not given), for which the T/C by setting is: (dose: 3.13 mg/kg/injection, schedule: Q04DX003 (ip), vehicle: water) 100 % of control; (dose: 6.25 mg/kg/injection, schedule: Q04DX003 (ip), vehicle: water) 100 % of control; (dose: 12.5 mg/kg/injection, schedule: Q04DX003 (ip), vehicle: water) 108 % of control; (dose: 25.0 mg/kg/injection, schedule: Q04DX003 (ip), vehicle: water) 115 % of control; (dose: 50.0 mg/kg/injection, schedule: Q04DX003 (ip), vehicle: water) 115 % of control.
Consider `O=C1NC(=O)C(=Cc2ccc(Cl)cc2)C(=O)N1`, for which the T/C under setting [4] was 114 % of control and the T/C under setting [5] was 116 % of control.
With `CC(N)S(=O)(=O)O` (stereo not given), the T/C runs as follows: under setting [1], 104 % of control; under setting [2], 98 % of control; under setting [3], 104 % of control; (dose: 400.0 mg/kg/injection, schedule: Q01DX009 (ip), vehicle: saline) 88 % of control.
On to `CCCCN(CCCC)C(Cl)=Nc1ccccc1`, for which the T/C is, setting by setting: under setting [7], 119 % of control; under setting [8], 120 % of control; under setting [9], 112 % of control.
On to `CC(C)OC(CCC#N)c1ccc(Cl)cc1` (stereo not given), for which the T/C runs as follows: (dose: 50.0 mg/kg/injection, schedule: Q04DX003 (ip), vehicle: other) 105 % of control; (dose: 100.0 mg/kg/injection, schedule: Q04DX003 (ip), vehicle: other) 114 % of control; (dose: 200.0 mg/kg/injection, schedule: Q04DX003 (ip), vehicle: other) 99 % of control.
Regarding `Cc1ncc([N+](=O)[O-])n1CCSC(Cl)(Cl)Cl`, the T/C was 99 % of control and 112 % of control (dose: 12.5 mg/kg/injection, schedule: Q04DX003 (ip), vehicle: saline); 102 % of control and 111 % of control (dose: 25.0 mg/kg/injection, schedule: Q04DX003 (ip), vehicle: saline); 112 % of control and 118 % of control (dose: 50.0 mg/kg/injection, schedule: Q04DX003 (ip), vehicle: saline); 112 % of control and 89 % of control (dose: 100.0 mg/kg/injection, schedule: Q04DX003 (ip), vehicle: saline).
On to `NC(CSCC(=O)O)C(=O)O` (stereo not given), for which the T/C under setting [7] was 95 % of control; the T/C under setting [8] was 111 % of control; the T/C under setting [9] is 105 % of control; the T/C (dose: 200.0 mg/kg/injection, schedule: Q01DX009 (ip), vehicle: Klucel (hydroxypropylcellulose) (HPC)) was 98 % of control.
With `C[C@H]1C(=O)OCN1S(=O)(=O)C(C)(C)C`, the T/C reads like this: (dose: 60.0 mg/kg/injection, schedule: Q01DX005 (ip), vehicle: saline with Tween-80) 101 % of control; (dose: 120.0 mg/kg/injection, schedule: Q01DX005 (ip), vehicle: saline with Tween-80) 104 % of control; (dose: 240.0 mg/kg/injection, schedule: Q01DX005 (ip), vehicle: saline with Tween-80) 102 % of control.
Turning to `Oc1c(Cl)cc(C(c2cc(Cl)c(O)c(Cl)c2)C(c2cc(Cl)c(O)c(Cl)c2)c2cc(Cl)c(O)c(Cl)c2)cc1Cl`, the T/C (dose: 100.0 mg/kg/injection, schedule: Q04DX003 (ip), vehicle: Klucel (hydroxypropylcellulose) (HPC)) was 115 % of control.
Take `O=C(NCC1OC(n2cnc3c(=O)[nH]cnc32)C(O)C1O)c1cccc(S(=O)(=O)F)c1` (stereo not given): the T/C is 101 % of control (dose: 50.0 mg/kg/injection, schedule: Q01DX001 (ip), vehicle: saline with Tween-80); 111 % of control (dose: 100.0 mg/kg/injection, schedule: Q01DX001 (ip), vehicle: saline with Tween-80); 100 % of control (dose: 200.0 mg/kg/injection, schedule: Q01DX001 (ip), vehicle: saline with Tween-80).
`O=C(OC(C(=O)O)c1ccccc1)c1ccc([N+](=O)[O-])cc1` (stereo not given): the T/C is 89 % of control (dose: 75.0 mg/kg/injection, schedule: Q01DX001 (ip), vehicle: Klucel (hydroxypropylcellulose) (HPC)); 103 % of control (dose: 150.0 mg/kg/injection, schedule: Q01DX001 (ip), vehicle: Klucel (hydroxypropylcellulose) (HPC)); 95 % of control (dose: 300.0 mg/kg/injection, schedule: Q01DX001 (ip), vehicle: Klucel (hydroxypropylcellulose) (HPC)).
Take `CSC1=NN(C(C)=O)C(c2ccc3ccccc3n2)S1` (stereo not given): the T/C was 95 % of control under setting [4], 89 % of control under setting [5] and 99 % of control under setting [6].
In the case of `CC1(C)NC(=S)N(c2ccccc2C(=O)O)C2=C1CN(Cc1ccccc1)CC2`, the T/C is 100 % of control under setting [1], 95 % of control under setting [2] and 105 % of control under setting [3].
`NC(=O)/C(N=Nc1ccccc1C(=O)O)=N\Nc1ccccc1C(=O)O`: the T/C under setting [4] is 94 % of control, the T/C under setting [5] is 95 % of control and the T/C under setting [6] was 103 % of control.
In the case of `CCOc1ccc2c(ccc(/C=C\c3cc(C)c4cccnc4c3O)[n+]2C)c1`, the T/C was 121 % of control (dose: 3.13 mg/kg/injection, schedule: Q01DX009 (ip), vehicle: saline with Tween-80) and 121 % of control (dose: 6.25 mg/kg/injection, schedule: Q01DX009 (ip), vehicle: saline with Tween-80).
On to `O=S(=O)(CCl)OCCCCOS(=O)(=O)CCl`, for which the T/C is, setting by setting: (dose: 25.0 mg/kg/injection, schedule: Q04DX003 (ip), vehicle: saline sonified) 109 % of control; (dose: 50.0 mg/kg/injection, schedule: Q04DX003 (ip), vehicle: saline sonified) 104 % of control; (dose: 66.0 mg/kg/injection, schedule: Q01DX009 (ip), vehicle: saline) 120 % of control; (dose: 100.0 mg/kg/injection, schedule: Q04DX003 (ip), vehicle: saline sonified) 118 % of control; (dose: 150.0 mg/kg/injection, schedule: Q01DX009 (ip), vehicle: saline) 150 % of control.
